Data as given in patent publication US10004701B2, “Methods and compositions for treating infection” (UNIVERSITY OF ROCHESTER, priority 2012, dated 2018).
Structures can show the parent of a compound that is named as a salt. Where two headings read alike, the source gives them in different places.

How the values were obtained:
Test in all cases: AK assay 384-well format, Prestwick library screening
E. faecium = assay type: cell-based, Enterococcus faecium; settings: 50 μM final drug concentration; for fold induction at 50 µM: Enterococcus faecium, 3 h
[1] = tested on: S. aureus strain USA300-0114; assay type: cell-based, Staphylococcus aureus; settings: 50 μM final drug concentration; for fold induction at 50 µM: Staphylococcus aureus, USA300, 3 h
K. pneumoniae = assay type: cell-based, Klebsiella pneumoniae; settings: 50 μM final drug concentration; for fold induction at 50 µM: Klebsiella pneumoniae, 3 h
[2] = tested on: A. baumannii strain 98-37-09; assay type: cell-based, Acinetobacter baumannii; settings: 50 μM final drug concentration; for fold induction at 50 µM: Acinetobacter baumannii, 983709, 3 h
P. aeruginosa = assay type: cell-based, Pseudomonas aeruginosa; settings: 50 μM final drug concentration; for fold induction at 50 µM: Pseudomonas aeruginosa, 3 h
E. cloacae = assay type: cell-based, Enterobacter cloacae; settings: 50 μM final drug concentration; for fold induction at 50 µM: Enterobacter cloacae, 3 h
E. coli = assay type: cell-based, Escherichia coli; settings: 50 μM final drug concentration; for fold induction at 50 µM: Escherichia coli, 3 h
[3] = planktonic E. coli, 384-well, […], read-out: AK-based Prestwick Library Screening Results: E. coli (increase in extracellular AK activity)

For `CCOC(=O)c1ccc(OC(=O)CCCCCN=C(N)N)cc1.CS(=O)(=O)O` [Gabexate mesilate], the “AK-based Prestwick library screening result, E. faecium (fold increase in extracellular AK activity)” value (E. faecium; planktonic E. faecium, positive cutoff 3-fold increase) was 1.1, the “AK-based Prestwick library screening result, S. aureus (fold increase in extracellular AK activity)” value ([1]; planktonic S. aureus, positive cutoff 3-fold increase) was 1.3 and the “AK-based Prestwick library screening result, K. pneumoniae (fold increase in extracellular AK activity)” value (K. pneumoniae; planktonic K. pneumoniae, positive cutoff 3-fold increase) was 0.9. For the same compound, the “AK-based Prestwick library screening result, A. baumannii (fold increase in extracellular AK activity)” value ([2]; planktonic A. baumannii, positive cutoff 3-fold increase) was 1.1, the “AK-based Prestwick library screening result, P. aeruginosa (fold increase in extracellular AK activity)” value (P. aeruginosa; planktonic P. aeruginosa, positive cutoff 3-fold increase) was 1.1 and the “AK-based Prestwick library screening result, E. cloacae (fold increase in extracellular AK activity)” value (E. cloacae; planktonic E. cloacae, positive cutoff 3-fold increase) was 1.4. For the same compound, the “AK-based Prestwick library screening result, E. coli (fold increase in extracellular AK activity)” value (E. coli; planktonic E. coli, positive cutoff 3-fold increase) was 1.1.
`NS(=O)(=O)c1cc(C(=O)O)c(NCc2ccco2)cc1Cl` [Furosemide] showed a fold induction at 50 µM (E. faecium; planktonic E. faecium, cutoff for positive-scoring molecules 3-fold increase, read-out: AK-based Prestwick Library Screening Results, E. faecium (increase in extracellular AK activity)) of 0.9, a fold induction at 50 µM ([1]; planktonic S. aureus, cutoff for positive-scoring molecules 3-fold increase, read-out: AK-based Prestwick Library Screening Results, S. aureus (increase in extracellular AK activity)) of 0.7 and a fold induction at 50 µM (K. pneumoniae; planktonic K. pneumoniae, cutoff for positive-scoring molecules 3-fold increase, read-out: AK-based Prestwick Library Screening Results, K. pneumoniae (increase in extracellular AK activity)) of 0.7. The fold induction at 50 µM ([2]; planktonic A. baumannii, cutoff for positive-scoring molecules 3-fold increase, read-out: AK-based Prestwick Library Screening Results, A. baumannii (increase in extracellular AK activity)) was 0.8, the fold induction at 50 µM (P. aeruginosa; planktonic P. aeruginosa, cutoff for positive-scoring molecules 3-fold increase, read-out: AK-based Prestwick Library Screening Results, P. aeruginosa (increase in extracellular AK activity)) was 0.9 and the fold induction at 50 µM (E. cloacae; planktonic E. cloacae, cutoff for positive-scoring molecules 3-fold increase, read-out: AK-based Prestwick Library Screening Results, E. cloacae (increase in extracellular AK activity)) was 0.8. For the same compound, the fold induction at 50 µM (E. coli; planktonic E. coli, cutoff for positive-scoring molecules 3-fold increase, read-out: AK-based Prestwick Library Screening Results, E. coli (increase in extracellular AK activity)) was 1.
For `CC(CNC1CCCCC1)OC(=O)c1ccccc1` (centres unmarked) [Hexylcaine hydrochloride], the fold induction at 50 µM (E. faecium; cutoff for positive-scoring molecules 3-fold increase, read-out: AK-based Prestwick Library Screening Results, E. faecium (fold increase in extracellular AK activity)) was 1, the fold induction at 50 µM ([1]; cutoff for positive-scoring molecules 3-fold increase, read-out: AK-based Prestwick Library Screening Results, S. aureus (fold increase in extracellular AK activity)) was 1.3 and the fold induction at 50 µM (K. pneumoniae; cutoff for positive-scoring molecules 3-fold increase, read-out: AK-based Prestwick Library Screening Results, K. pneumoniae (fold increase in extracellular AK activity)) was 1. It also gave a fold induction at 50 µM ([2]; cutoff for positive-scoring molecules 3-fold increase, read-out: AK-based Prestwick Library Screening Results, A. baumannii (fold increase in extracellular AK activity)) of 1.3, a fold induction at 50 µM (P. aeruginosa; cutoff for positive-scoring molecules 3-fold increase, read-out: AK-based Prestwick Library Screening Results, P. aeruginosa (fold increase in extracellular AK activity)) of 1.1 and a fold induction at 50 µM (E. cloacae; cutoff for positive-scoring molecules 3-fold increase, read-out: AK-based Prestwick Library Screening Results, E. cloacae (fold increase in extracellular AK activity)) of 1.4. It also gave a fold induction at 50 µM (E. coli; cutoff for positive-scoring molecules 3-fold increase, read-out: AK-based Prestwick Library Screening Results, E. coli (fold increase in extracellular AK activity)) of 1.2.
Work on `CCN(CC)CCOC(=O)C(Cc1cccc2ccccc12)CC1CCCO1` (centres unmarked) [Nafronyl oxalate] yielded a fold induction at 50 µM (E. faecium; planktonic, cutoff for positive 3-fold increase, read-out: AK-based Prestwick Library Screening Results, E. faecium (fold increase in extracellular AK activity)) of 1, a fold induction at 50 µM ([1]; planktonic, cutoff for positive 3-fold increase, read-out: AK-based Prestwick Library Screening Results, S. aureus (fold increase in extracellular AK activity)) of 0.9 and a fold induction at 50 µM (K. pneumoniae; planktonic, cutoff for positive 3-fold increase, read-out: AK-based Prestwick Library Screening Results, K. pneumoniae (fold increase in extracellular AK activity)) of 1. For the same compound, the fold induction at 50 µM ([2]; planktonic, cutoff for positive 3-fold increase, read-out: AK-based Prestwick Library Screening Results, A. baumannii (fold increase in extracellular AK activity)) was 1, the fold induction at 50 µM (P. aeruginosa; planktonic, cutoff for positive 3-fold increase, read-out: AK-based Prestwick Library Screening Results, P. aeruginosa (fold increase in extracellular AK activity)) was 1.1 and the fold induction at 50 µM (E. cloacae; planktonic, cutoff for positive 3-fold increase, read-out: AK-based Prestwick Library Screening Results, E. cloacae (fold increase in extracellular AK activity)) was 1.4. The fold induction at 50 µM (E. coli; planktonic, cutoff for positive 3-fold increase, read-out: AK-based Prestwick Library Screening Results, E. coli (fold increase in extracellular AK activity)) was 1.
With `CN1CCC(=C2c3ccccc3Sc3ccccc32)CC1` [Pimethixene maleate] the fold induction at 50 µM (E. faecium; planktonic E. faecium, 384-well, […], read-out: AK-based Prestwick Library Screening Results: E. faecium (increase in extracellular AK activity)) was 1.1, the fold induction at 50 µM ([1]; planktonic S. aureus, 384-well, […], read-out: AK-based Prestwick Library Screening Results: S. aureus (increase in extracellular AK activity)) was 0.9 and the fold induction at 50 µM (K. pneumoniae; planktonic K. pneumoniae, 384-well, […], read-out: AK-based Prestwick Library Screening Results: K. pneumoniae (increase in extracellular AK activity)) was 1.2. It also gave a fold induction at 50 µM ([2]; planktonic A. baumannii, 384-well, […], read-out: AK-based Prestwick Library Screening Results: A. baumannii (increase in extracellular AK activity)) of 1.1, a fold induction at 50 µM (P. aeruginosa; planktonic P. aeruginosa, 384-well, […], read-out: AK-based Prestwick Library Screening Results: P. aeruginosa (increase in extracellular AK activity)) of 1.1 and a fold induction at 50 µM (E. cloacae; planktonic E. cloacae, 384-well, […], read-out: AK-based Prestwick Library Screening Results: E. cloacae (increase in extracellular AK activity)) of 1.4. For the same compound, the fold induction at 50 µM (E. coli; [3]) was 1.4.
For `CC(=O)N[C@@H](CC(C)C)C(=O)O` [N-Acetyl-L-leucine], the fold induction at 50 µM (E. faecium; planktonic, cutoff for positive-scoring molecules 3-fold increase, read-out: AK-based Prestwick Library Screening Results, E. faecium (fold increase in extracellular AK activity)) was 0.9, the fold induction at 50 µM ([1]; planktonic, cutoff for positive-scoring molecules 3-fold increase, read-out: AK-based Prestwick Library Screening Results, S. aureus (fold increase in extracellular AK activity)) was 0.7 and the fold induction at 50 µM (K. pneumoniae; planktonic, cutoff for positive-scoring molecules 3-fold increase, read-out: AK-based Prestwick Library Screening Results, K. pneumoniae (fold increase in extracellular AK activity)) was 0.6. For the same compound, the fold induction at 50 µM ([2]; planktonic, cutoff for positive-scoring molecules 3-fold increase, read-out: AK-based Prestwick Library Screening Results, A. baumannii (fold increase in extracellular AK activity)) was 0.7, the fold induction at 50 µM (P. aeruginosa; planktonic, cutoff for positive-scoring molecules 3-fold increase, read-out: AK-based Prestwick Library Screening Results, P. aeruginosa (fold increase in extracellular AK activity)) was 0.7 and the fold induction at 50 µM (E. cloacae; planktonic, cutoff for positive-scoring molecules 3-fold increase, read-out: AK-based Prestwick Library Screening Results, E. cloacae (fold increase in extracellular AK activity)) was 0.9. For the same compound, the fold induction at 50 µM (E. coli; planktonic, cutoff for positive-scoring molecules 3-fold increase, read-out: AK-based Prestwick Library Screening Results, E. coli (fold increase in extracellular AK activity)) was 0.7.
With `CN1CC[C@]23c4ccccc4N[C@H]1[C@]21CCN(C)[C@H]3Nc2ccccc21` [Calycanthine] the “AK-based Prestwick Library Screening Results, E. faecium (increase in extracellular AK activity)” value (E. faecium; planktonic E. faecium, […]) was 0.8, the “AK-based Prestwick Library Screening Results, S. aureus (increase in extracellular AK activity)” value ([1]; planktonic S. aureus, […]) was 0.6 and the “AK-based Prestwick Library Screening Results, K. pneumoniae (increase in extracellular AK activity)” value (K. pneumoniae; planktonic K. pneumoniae, […]) was 0.7. For the same compound, the “AK-based Prestwick Library Screening Results, A. baumannii (increase in extracellular AK activity)” value ([2]; planktonic A. baumannii, […]) was 0.8, the “AK-based Prestwick Library Screening Results, P. aeruginosa (increase in extracellular AK activity)” value (P. aeruginosa; planktonic P. aeruginosa, […]) was 0.8 and the “AK-based Prestwick Library Screening Results, E. cloacae (increase in extracellular AK activity)” value (E. cloacae; planktonic E. cloacae, […]) was 1.2. The “AK-based Prestwick Library Screening Results, E. coli (increase in extracellular AK activity)” value (E. coli; planktonic E. coli, […]) was 0.9.
In the case of `CC(=O)O[C@H]1C(=O)[C@@]2(C)[C@H]([C@H](OC(=O)c3ccccc3)[C@]3(O)C[C@H](OC(=O)[C@H](O)[C@@H](NC(=O)c4ccccc4)c4ccccc4)C(C)=C1C3(C)C)[C@]1(OC(C)=O)CO[C@@H]1C[C@@H]2O` [Paclitaxel], the fold induction at 50 µM (E. faecium; planktonic E. faecium, 384-well, cutoff for positive-scoring molecules 3-fold increase, read-out: AK-based Prestwick Library Screening Results: E. faecium (increase in extracellular AK activity)) is reported as 1, the fold induction at 50 µM ([1]; planktonic S. aureus, 384-well, cutoff for positive-scoring molecules 3-fold increase, read-out: AK-based Prestwick Library Screening Results: S. aureus (increase in extracellular AK activity)) is reported as 1 and the fold induction at 50 µM (K. pneumoniae; planktonic K. pneumoniae, 384-well, cutoff for positive-scoring molecules 3-fold increase, read-out: AK-based Prestwick Library Screening Results: K. pneumoniae (increase in extracellular AK activity)) is reported as 1. The fold induction at 50 µM ([2]; planktonic A. baumannii, 384-well, cutoff for positive-scoring molecules 3-fold increase, read-out: AK-based Prestwick Library Screening Results: A. baumannii (increase in extracellular AK activity)) was 1.3, the fold induction at 50 µM (P. aeruginosa; planktonic P. aeruginosa, 384-well, cutoff for positive-scoring molecules 3-fold increase, read-out: AK-based Prestwick Library Screening Results: P. aeruginosa (increase in extracellular AK activity)) was 1 and the fold induction at 50 µM (E. cloacae; planktonic E. cloacae, 384-well, cutoff for positive-scoring molecules 3-fold increase, read-out: AK-based Prestwick Library Screening Results: E. cloacae (increase in extracellular AK activity)) was 1.6. It also gave a fold induction at 50 µM (E. coli; [3]) of 1.1.
